Each compound was assayed against T1, CETP (Homo sapiens, UniProt P11597) (assay: Assay of CETP Inhibition using Purified Components (Reconstituted Buffer Assay)). Settings: IC50, Inhibition of CETP activity in reconstituted buffer assay; transfer of [3H]CE from HDL to LDL.
T1 sequence (P11597 18-493): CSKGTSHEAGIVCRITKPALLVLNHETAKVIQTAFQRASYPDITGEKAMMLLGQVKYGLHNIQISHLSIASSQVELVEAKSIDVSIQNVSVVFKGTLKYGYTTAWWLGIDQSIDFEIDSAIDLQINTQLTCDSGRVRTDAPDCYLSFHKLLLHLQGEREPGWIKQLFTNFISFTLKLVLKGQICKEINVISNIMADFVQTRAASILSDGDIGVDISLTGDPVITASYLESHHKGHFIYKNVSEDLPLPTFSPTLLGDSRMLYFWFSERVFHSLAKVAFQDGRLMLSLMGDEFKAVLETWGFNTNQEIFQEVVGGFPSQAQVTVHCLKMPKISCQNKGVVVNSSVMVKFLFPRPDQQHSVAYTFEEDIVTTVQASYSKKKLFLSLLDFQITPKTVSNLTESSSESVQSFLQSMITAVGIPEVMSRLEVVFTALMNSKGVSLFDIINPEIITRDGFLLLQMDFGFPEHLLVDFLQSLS
Format: biochemical
Design: made in house; host or cells: CHO cells (serum-free conditioned medium)
Method in brief: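 Transfer of radiolabeled cholesteryl ester from HDL to LDL was run for 2 h at 37 °C in pH 7.4 Tris buffer with 1% BSA, using purified CHO-expressed human CETP. Precipitated LDL radioactivity, measured by scintillation after dextran sulfate/MgCl2 precipitation and filtration, yielded the IC50.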
`OC(CN(Cc1ccc2c(c1)OC(F)(F)C(F)(F)O2)c1cccc(Oc2ccccc2)c1)C(F)(F)F` (stereo not shown) [Example 687] showed an IC50 of 12 µM. `OC(CN(Cc1cccc(OC(F)(F)F)c1)Cc1cccc(OC(F)(F)F)c1)C(F)(F)F` (stereo not shown) [compound 192] was tested, and the IC50 was 23 µM. `OC(CN(Cc1cccc(Oc2ccccc2)c1)Cc1cccc(OC(F)(F)F)c1)C(F)(F)F` (stereo not shown) [compound 195] was tested, and the IC50 was 30 µM.

Same assay, conditions: Inhibition of CETP activity in reconstituted buffer assay; transfer of [3H]CE from HDL to LDL; read-out: IC50
Compound `COc1ccccc1N(Cc1ccc(C)cc1)CC(O)C(F)(F)F` (stereo not shown) [Example 667] has an IC50 of over 100 µM. Work on `COc1ccccc1N(Cc1cccc(C)c1)CC(O)C(F)(F)F` (stereo not shown) [Example 668] yielded an IC50 of over 100 µM. `COc1ccccc1N(Cc1cccc(C(F)(F)F)c1)CC(O)C(F)(F)F` (stereo not shown) [Example 669] gave an IC50 of over 100 µM. Compound `Cc1ccc(CN(CC(O)C(F)(F)F)c2ccccc2C(F)(F)F)cc1` (stereo not shown) [Example 673] has an IC50 of over 100 µM. `COc1ccc(Oc2cccc(CN(CC(O)C(F)(F)F)c3cccc(F)c3)c2)cc1` (stereo not shown) [Example 675] showed an IC50 of over 100 µM. `OC(CN(Cc1cccc(Oc2ccc(Cl)cc2)c1)c1cccc(F)c1)C(F)(F)F` (stereo not shown) [Example 676] gave an IC50 of over 100 µM. With `OC(CN(Cc1cc(C(F)(F)F)cc(C(F)(F)F)c1)c1cccc(F)c1)C(F)(F)F` (stereo not shown) [Example 677] the IC50 was over 100 µM. In the case of `Cc1cccc(CN(CC(O)C(F)(F)F)c2cccc(F)c2F)c1` (stereo not shown) [Example 678], the IC50 is reported as over 100 µM. In the case of `Cc1ccc(CN(CC(O)C(F)(F)F)c2cccc(C(F)(F)F)c2F)cc1` (stereo not shown) [Example 679], the IC50 is reported as over 100 µM. `Cc1cccc(CN(CC(O)C(F)(F)F)c2cccc(C(F)(F)F)c2F)c1` (stereo not shown) [Example 680] showed an IC50 of over 100 µM. With `Cc1ccc(CN(CC(O)C(F)(F)F)c2cccc(F)c2F)cc1` (stereo not shown) [Example 681] the IC50 was over 100 µM. Compound `COc1ccccc1N(Cc1ccc(C(F)(F)F)cc1)CC(O)C(F)(F)F` (stereo not shown) [Example 682] has an IC50 of over 100 µM. `OC(CN(Cc1ccc(OCc2ccccc2)cc1)c1cccc(OC(F)(F)F)c1)C(F)(F)F` (stereo not shown) [Example 683] showed an IC50 of 20 µM. `O=[N+]([O-])c1cc(Cl)ccc1CN(CC(O)C(F)(F)F)c1cccc(Oc2ccccc2)c1` (stereo not shown) [Example 684] showed an IC50 of over 100 µM. `OC(CN(Cc1ccc(Oc2ccc(Cl)c(Cl)c2)cc1)c1cccc(Oc2ccccc2)c1)C(F)(F)F` (stereo not shown) [Example 685] gave an IC50 of 60 µM. For `OC(CN(Cc1cccc(C(F)(F)F)c1)c1ccc(-c2ccccc2)cc1)C(F)(F)F` (stereo not shown) [Example 689], the IC50 was 5 µM. In the case of `Oc1cccc(N(Cc2cccc(OC(F)(F)F)c2)CC(O)C(F)(F)F)c1` (stereo not shown) [Example 692], the IC50 is reported as 16 µM. Work on `CCC(=O)c1ccc(Oc2cccc(N(Cc3cccc(OC(F)(F)C(F)F)c3)CC(O)C(F)(F)F)c2)cc1` (stereo not shown) [Example 693] yielded an IC50 of 1.2 µM. For `FC(CN(Cc1cccc(OC(F)(F)C(F)F)c1)c1cccc(Oc2ccccc2)c1)C(F)(F)F` (stereo not shown) [Example 1669, N-(3-phenoxyphenyl)-N-(3,3,3,2-tetrafluoropropyl)-3-(1,1,2,2-tetrafluoroethoxy)benzenemethanamine], the IC50 was 17 µM. `CCc1cc(Oc2cccc(N(Cc3cccc(OC(F)(F)C(F)F)c3)C(CO)C(F)(F)F)c2)ccc1Cl` (stereo not shown) [Example 1670] was tested, and the IC50 was 1.8 µM. In the case of `FC(F)(F)CCCN(Cc1cccc(OC(F)(F)F)c1)c1cccc(Oc2ccccc2)c1` [Example 1671, N-(3-phenoxyphenyl)-N-(4,4,4-trifluorobutyl)-3-(trifluoromethoxy) benzenemethanamine], the IC50 is reported as 11 µM. With `OC(CN(Cc1ccc(C(F)(F)F)cc1)Cc1cccc(F)c1)C(F)(F)F` (stereo not shown) [compound 169] the IC50 was over 100 µM. `OC(CN(Cc1ccc(F)cc1)Cc1ccc(C(F)(F)F)cc1)C(F)(F)F` (stereo not shown) [compound 170] gave an IC50 of over 100 µM. `OC(CN(Cc1ccc(C(F)(F)F)cc1)Cc1ccccc1F)C(F)(F)F` (stereo not shown) [compound 171] was tested, and the IC50 was over 100 µM. With `OC(CN(Cc1ccc(C(F)(F)F)cc1)Cc1cccc(Cl)c1)C(F)(F)F` (stereo not shown) [compound 172] the IC50 was 7 µM. With `OC(CN(Cc1ccc(Cl)cc1)Cc1ccc(C(F)(F)F)cc1)C(F)(F)F` (stereo not shown) [compound 173] the IC50 was 20 µM. `OC(CN(Cc1ccc(C(F)(F)F)cc1)Cc1ccccc1Cl)C(F)(F)F` (stereo not shown) [compound 174] was tested, and the IC50 was over 100 µM. `OC(CN(Cc1cccc(Cl)c1)Cc1ccccc1C(F)(F)F)C(F)(F)F` (stereo not shown) [compound 175] showed an IC50 of over 100 µM. Work on `OC(CN(Cc1ccc(Cl)cc1)Cc1ccccc1C(F)(F)F)C(F)(F)F` (stereo not shown) [compound 176] yielded an IC50 of over 100 µM. `OC(CN(Cc1ccccc1Cl)Cc1ccccc1C(F)(F)F)C(F)(F)F` (stereo not shown) [compound 177] gave an IC50 of over 100 µM. `Cc1ccc(CN(Cc2cccc(F)c2)CC(O)C(F)(F)F)cc1` (stereo not shown) [compound 178] was tested, and the IC50 was over 100 µM. `Cc1ccc(CN(Cc2ccc(F)cc2)CC(O)C(F)(F)F)cc1` (stereo not shown) [compound 179] gave an IC50 of over 100 µM. For `Cc1cccc(CN(Cc2cccc(F)c2)CC(O)C(F)(F)F)c1` (stereo not shown) [compound 180], the IC50 was over 100 µM. Compound `Cc1ccc(CN(Cc2ccccc2F)CC(O)C(F)(F)F)cc1` (stereo not shown) [compound 181] has an IC50 of over 100 µM. For `Cc1cccc(CN(Cc2ccc(F)cc2)CC(O)C(F)(F)F)c1` (stereo not shown) [compound 182], the IC50 was over 100 µM. Compound `Cc1cccc(CN(Cc2ccccc2F)CC(O)C(F)(F)F)c1` (stereo not shown) [compound 183] has an IC50 of over 100 µM. With `OC(CN(Cc1cccc(C(F)(F)F)c1)Cc1ccccc1F)C(F)(F)F` (stereo not shown) [compound 184] the IC50 was over 100 µM. `OC(CN(Cc1cccc(Cl)c1)Cc1cccc(C(F)(F)F)c1)C(F)(F)F` (stereo not shown) [compound 185] gave an IC50 of 15 µM. Compound `OC(CN(Cc1ccc(Cl)cc1)Cc1cccc(C(F)(F)F)c1)C(F)(F)F` (stereo not shown) [compound 186] has an IC50 of 15 µM. `OC(CN(Cc1cccc(C(F)(F)F)c1)Cc1ccccc1Cl)C(F)(F)F` (stereo not shown) [compound 187] was tested, and the IC50 was over 100 µM. `OC(CN(Cc1cccc(F)c1)Cc1ccccc1C(F)(F)F)C(F)(F)F` (stereo not shown) [compound 188] showed an IC50 of over 100 µM. `OC(CN(Cc1ccc(F)cc1)Cc1ccccc1C(F)(F)F)C(F)(F)F` (stereo not shown) [compound 189] showed an IC50 of over 100 µM. `OC(CN(Cc1cccc(F)c1)Cc1cccc(C(F)(F)F)c1)C(F)(F)F` (stereo not shown) [compound 190] showed an IC50 of over 100 µM. With `OC(CN(Cc1ccc(F)cc1)Cc1cccc(C(F)(F)F)c1)C(F)(F)F` (stereo not shown) [compound 191] the IC50 was over 100 µM. With `OC(CN(Cc1cccc(Cl)c1)Cc1cccc(OC(F)(F)F)c1)C(F)(F)F` (stereo not shown) [compound 193] the IC50 was 10 µM. `OC(CN(Cc1cccc(Br)c1)Cc1cccc(OC(F)(F)F)c1)C(F)(F)F` (stereo not shown) [compound 194] showed an IC50 of 7 µM. With `OC(CN(Cc1ccc(-c2ccccc2)cc1)Cc1cccc(OC(F)(F)F)c1)C(F)(F)F` (stereo not shown) [compound 196] the IC50 was 40 µM. Work on `O=[N+]([O-])c1cccc(CN(Cc2cccc(OC(F)(F)F)c2)CC(O)C(F)(F)F)c1` (stereo not shown) [compound 197] yielded an IC50 of 18 µM. `OC(CN(CCc1cccc(F)c1)Cc1cccc(OC(F)(F)C(F)F)c1)C(F)(F)F` (stereo not shown) [compound 198] showed an IC50 of 15 µM. In the case of `COc1cc(N(Cc2cccc(C(F)(F)F)c2)CC(O)C(F)(F)F)cc(C(F)(F)F)c1` (stereo not shown) [compound 215], the IC50 is reported as 9.2 µM. For `OC(CN(Cc1cccc(OC(F)(F)C(F)F)c1)c1cccc(Sc2ccccc2)c1)C(F)(F)F` (stereo not shown) [compound 290], the IC50 was 8.1 µM. `COc1ccc(Sc2cccc(N(Cc3cccc(OC(F)(F)C(F)F)c3)CC(O)C(F)(F)F)c2)cc1` (stereo not shown) [compound 291] showed an IC50 of 8.4 µM. `CC(C)C(O)c1cccc(N(Cc2cccc(OC(F)(F)C(F)F)c2)CC(O)C(F)(F)F)c1` (stereo not shown) [compound 584] showed an IC50 of 1.7 µM. `Cc1ccc(CN(CC(O)C(F)(F)F)c2cccc(Oc3ccccc3)c2)cc1-c1ccco1` (stereo not shown) [compound 594] showed an IC50 of 4.2 µM. With `CCN(C)C(=O)c1cccc(CN(CC(O)C(F)(F)F)c2cccc(Oc3ccccc3)c2)c1` (stereo not shown) [compound 613] the IC50 was 10 µM. `CCCN(C)C(=O)c1cccc(CN(CC(O)C(F)(F)F)c2cccc(Oc3ccccc3)c2)c1` (stereo not shown) [compound 614] showed an IC50 of over 100 µM. For `CCCCN(C)C(=O)c1cccc(CN(CC(O)C(F)(F)F)c2cccc(Oc3ccccc3)c2)c1` (stereo not shown) [compound 615], the IC50 was over 100 µM. `O=C(c1cccc(CN(CC(O)C(F)(F)F)c2cccc(Oc3ccccc3)c2)c1)N1CCCC1` (stereo not shown) [compound 616] gave an IC50 of 18 µM. Work on `CC(C)CC(=O)c1cccc(CN(CC(O)C(F)(F)F)c2cccc(Oc3ccccc3)c2)c1` (stereo not shown) [compound 621] yielded an IC50 of 9.3 µM. `OC(CN(Cc1cccc(OC(F)(F)C(F)F)c1)c1cc(Oc2ccc(F)cc2)cc(C(F)(F)F)c1)C(F)(F)F` (stereo not shown) [compound 644] gave an IC50 of 1.6 µM. `OC(CN(Cc1cccc(Cl)c1)Cc1cccc(OC(F)(F)F)c1)C(F)(F)F` (stereo not shown) [compound 694] gave an IC50 of 15 µM.

— patent US6723753B2, “Substituted n-benzyl-n-phenyl aminoalcohol compounds useful for inhibiting cholesteryl ester transfer protein activity” (Pharmacia Corporation, priority 2002, dated 2004)
